Test results from US20230321135A1, “TARGETING OF LACTATE DEHYDROGENASE C, METHODS OF PREPARING SAME, AND METHODS OF USING SAME IN COMBINATION WITH ANTI-CANCER TREATMENTS” (QATAR FOUNDATION FOR EDUCATION, SCIENCE AND COMMUNITY …, priority 2020, published 2023).

Assays:
[1] = system: LDHC; conditions: cited from earlier work
[2] = system: MDA-MB-468 cells; experiment: Western blot of cleaved caspase 3 after olaparib or cisplatin treatment; type: cell-based; conditions: MDA-MB-468, after treatment
Description: (§1) FIG. 6A: Annexin V/PI flow cytometric quantification of apoptosis after 72 hrs of treatment with olaparib or cisplatin. FIG. 6B depicts a western blot of cleaved caspase 3 protein expression with β-actin as loading control. Numbers under each lane represent mean densitometry values (arbitrary units) for cleaved caspase 3 signal (high exposure blot) from three independent experiments normalized to β-actin. FIG. 6C: Representative immunofluorescence microscopy images of phospho-γ-H2AX (red) and DAPI-stained nuclei (100× magnification). Yellow arrows indicate early apoptotic cells and white arrows indicate late apoptotic cells. […] All statistical analysis comparing shCTRL vs shLDHC performed using Student's t-test.
(§2) DNA damage repair inhibitors and DNA damage inducing agents, including the Poly ADP-ribose polymerase (PARP)-inhibitor olaparib and cisplatin, are widely used anti-cancer drugs with particular benefit to patients with defects in DDR pathways such as BRCA1/2-positive or ‘BRCAness’ basal breast cancer patients.

[3] = system: shLDHC breast cancer cells (MDA-MB-468, BT-549, MDA-MB-231, HCC-1500); experiment: Clonogenic assay at 14 days of culture post-treatment (72 h) with olaparib or cisplatin; type: cell-based; conditions: cell-line dependent
[4] = system: shLDHC breast cancer cells (MDA-MB-468, BT-549, HCC-1500); experiment: Annexin V/PI apoptosis after 72 hrs of treatment with olaparib or cisplatin; type: cell-based
Description: as §1
Supplemental FIG. 5A depicts a representative Annexin V/PI flow cytometry plots of MDA-MB-468 cells after 72 hrs of treatment with olaparib or cisplatin. Supplemental FIG. 5B depicts Annexin V/PI flow cytometric quantification of BT-549 cells after 72 hrs of treatment with olaparib or cisplatin. Supplemental FIG. 5C: Annexin V/PI flow cytometric quantification of HCC-1500 cells after 72 hrs of treatment with olaparib or cisplatin. […] Statistical analysis comparing shCTRL vs shLDHC performed using Student's t-test. […]

[5] = system: MDA-MB-468 cells; experiment: Phospho-γ-H2AX immunofluorescence after olaparib or cisplatin treatment; type: cell-based; conditions: similar levels in shCTRL and shLDHC treated cells
Description: as §1, §2

[6] = system: HCC-1500 cells; experiment: Sensitivity to olaparib or cisplatin (72 h treatment; Annexin V/PI, clonogenic assay); type: cell-based; conditions: 14 days of culture post-treatment (72 h)

Compound | affinity for LDHC [1] | selectivity towards LDHC ([1]; vs other lactate dehydrogenase enzymes (LDHA, LDHB)) | expression of cleaved caspase 3 in shLDHC cells [2] | colony formation ability of shLDHC cells further compromised, compared to shCTRL treated cells [3] | apoptosis in giant shLDHC cells compared to shCTRL cells [4] | DNA damage after treatment [5] | clonogenic ability of shCTRL and shLDHC cells [6]
CCNC(=O)C(=O)O [N-Ethyl oxamate] | high affinity |  |  |  |  |  | 
CCCNC(=O)C(=O)O [N-propyl oxamate] |  | high degree of selectivity |  |  |  |  | 
N.N.[Cl][Pt][Cl] [cisplatin] |  |  | augmented | greater than 4 fold | further induced | significant increase | completely abolished
O=C(c1cc(Cc2n[nH]c(=O)c3ccccc23)ccc1F)N1CCN(C(=O)C2CC2)CC1 [olaparib] |  |  | augmented | about 2 fold | further induced | significant increase | 
